Experimental findings from patent US20230286973A1, “PROTEIN SECRETION INHIBITORS” (KEZAR LIFE SCIENCES, priority 2020, published 2023) are described below.

The subject of series [1] is PD1-ss+10aa/Gaussia Luciferase. The experiment in a line: Dox-Induced PD1-ss-Gluc Assay. Type of series: cell-based. The conditions noted are these: 24 hr Dox induction; 293FRT/TO cells; read-out: 24 hr Dox Inducible PD1ssGluc 293FRT/TO: Mean IC50. Put shortly: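 Compounds were added in DMSO/media with doxycycline and incubated at 37 °C, 5% CO2, on 293 T-REx cells plated one day earlier. These cells stably express, under tetracycline-regulated control, a Gaussia luciferase fused to the PD1 signal peptide plus 10 residues. Structures drawn without stereochemistry were tested as stereoisomer mixtures.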

The subject of series [2] is TNFα-FL/Gaussia Luciferase. In words: Dox Induced TNFα-FL-Gluc Assay. It is filed as cell-based. The conditions noted are these: for IC50: 24 hr Dox induction, 293FRT/TO cells, read-out: 24 hr Dox Inducible TNFaFLGluc 293FRT/TO: Mean IC50; for 24 hr Dox Inducible TNFaFLGluc 293FRT/TO: TNF/PD1: ratio of TNFaFLGluc IC50 to PD1ssGluc IC50. Put shortly: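 Compound was added with doxycycline to cells plated a day earlier, incubating at 37° C under 5% CO2. The reporter line is 293 T-REx expressing a TNFα (1-233)–Gaussia luciferase fusion under tetracycline-regulated control.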

For series [3], the system named is HER3-ss+4aa/Gaussia Luciferase. The experiment in a line: Dox-Induced Her3-ss-Gluc Assay. Type of series: cell-based. To be noted: 24 hr Dox induction; 293FRT/TO cells; read-out: 24 hr Dox Inducible Her3(ss + 4)Gluc 293FRT/TO: Mean IC50. In outline:
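Compounds were diluted in DMSO/media containing doxycycline. They were added to Flp-In 293 T-REx cells plated the previous day, then incubated at 37 °C under 5% CO2. These cells stably express, under T-REx control, Gaussia luciferase fused to the HER3 signal sequence plus 4 amino acids.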

In series [4] the test system is IL-2-FL/Gaussia Luciferase. The experiment in a line: Dox Induced IL2-FL-Gluc Assay. It is filed as cell-based. The conditions noted are these: for IC50: 24 hr Dox induction, 293FRT/TO cells, read-out: 24 hr Dox Inducible IL2FLGluc 293FRT/TO: Mean IC50; for 24 hr Dox Inducible IL2FLGluc 293FRT/TO: IL2/PD1: ratio of IL2FLGluc IC50 to PD1ssGluc IC50. In outline:
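Compounds in DMSO/medium with doxycycline were applied to a 293 T-REx stable line expressing an IL-2 (aa 1-153)–Gaussia luciferase fusion under tetracycline-regulated control, cells seeded one day earlier; incubation at 37 °C, 5% CO2. Structures drawn without stereochemistry were tested as stereoisomer mixtures.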

Series [5] relates to multiple myeloma cell line NCI-H929. In words: H929 Cell Viability Assay. The conditions noted are these: Homo sapiens, NCI-H929, 48 h, NCI-H929 cells, Celltiter-Glo. Type of series: cell-based, human. Put shortly:
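Luminescent CellTiter-Glo read-out of viability after a 48 h exposure (37° C, 5% CO2) of NCI-H929 myeloma cells to compound dilutions in RPMI 1640 plus 10% FBS. Data for structures drawn without stereochemistry refer to stereoisomer mixtures.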

The subject of series [6] is multiple myeloma cell line U266B1. In words: U266 Cell Viability Assay. Type of series: cell-based, human. To be noted: Homo sapiens, U-266, 48 h, U266B1 cells, Celltiter-Glo. Put shortly:
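CellTiter-Glo luminescence was read after a 48 h compound exposure (37 °C, 5% CO2) of human U266B1 myeloma cells grown in 10% FBS-supplemented RPMI 1640. Data for structures shown without defined stereochemistry refer to stereoisomer mixtures.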
(In ATP-based viability assays light output follows the ATP content of the culture.)

The nature of series [7]: Liver Microsome Stability Assay (rat). The conditions noted are these: rat liver microsomes, with NADPH, 1.0 uM compound.
Description: (§1) Stability of a compound was assessed in the presence of liver microsomes from various sources—mouse, rat, monkey and human liver microsomes. 1.0 uM compound, 0.4% DMSO in 0.1 M Potassium Phosphate with 1.0 mg/mL liver microsomes, were incubated at 37° C. with or without 1 mM NADPH. The samples were quenched at 0, and 30 minutes.
A short description of series [8]: Liver Microsome Stability Assay (mouse). To be noted: mouse liver microsomes, with NADPH, 1.0 uM compound.
Description: as §1
Series [9] is described as follows: Liver Microsome Stability Assay (human). To be noted: human liver microsomes, with NADPH, 1.0 uM compound. For orientation: Microsomes from liver hold many membrane-bound enzymes, among them those of drug oxidation.
Description: as §1
The nature of series [10]: Liver Microsome Stability Assay (monkey). The conditions noted are these: monkey liver microsomes, with NADPH, 1.0 uM compound.
Description: as §1

Take `NC(=O)N1CCC(Oc2ccc(N3CCC[C@@H]3c3csc(NC(=O)c4cccn4Cc4ccnc(F)c4)n3)nc2)CC1` [Compound A156, (R)-4-((6-(2-(2-(1-((2-fluoropyridin-4-yl)methyl)-1H-pyrrole-2-carboxamido)thiazol-4-yl)pyrrolidin-1-yl)pyridin-3-yl)oxy)piperidine-1-carboxamide]: the IC50 in series [1] was determined as 115 nM; in series [2], 1560 nM; in series [3], 273 nM; in [4], 349 nM. The “24 hr Dox Inducible TNFaFLGluc 293FRT/TO: TNF/PD1” value in [2] is on record as 13.5. In series [4], the “24 hr Dox Inducible IL2FLGluc 293FRT/TO: IL2/PD1” value is reported as 3. Further, the EC50 (in general, the concentration that produces a half-maximal response) is 2960 nM in series [5] and > 25000 nM in series [6]. Besides, the “Liver Microsome Stability (Multiple Species): Rat - % Remaining after 30 min w/NADPH” value in [7] worked out at 34.1%. Also, the “Liver Microsome Stability (Multiple Species): Mouse - % Remaining after 30 min w/NADPH” value in series [8] amounted to 38.2%. Also, in series [9], the “Liver Microsome Stability (Multiple Species): Human - % Remaining after 30 min w/NADPH” value worked out at 10.3%. For the same molecule, the “Liver Microsome Stability (Multiple Species): Monkey - % Remaining after 30 min w/NADPH” value in series [10] is recorded as 1.75%.
As to `CC(C)c1cccc2nc(/C=C/c3csc(NC(=O)c4cccn4Cc4ccnc(F)c4)n3)cn12` [Compound B73, (E)-1-((2-fluoropyridin-4-yl)methyl)-N-(4-(2-(5-isopropylimidazo[1,2-a]pyridin-2-yl)vinyl)thiazol-2-yl)-1H-pyrrole-2-carboxamide], the IC50 in [1] was 486 nM; in series [2] it was > 25000 nM; in series [3], > 25000 nM; in series [4], > 25000 nM. Moreover, in [2], the “24 hr Dox Inducible TNFaFLGluc 293FRT/TO: TNF/PD1” value is on record as >51.4. Further, in series [4], the “24 hr Dox Inducible IL2FLGluc 293FRT/TO: IL2/PD1” value is given as >51. Moreover, the EC50 in series [5] and in series [6] was > 25000 nM throughout. In series [7], the “Liver Microsome Stability (Multiple Species): Rat - % Remaining after 30 min w/NADPH” value amounted to 3.87%. In addition, the “Liver Microsome Stability (Multiple Species): Mouse - % Remaining after 30 min w/NADPH” value in [8] amounted to 1.62%. Besides, the “Liver Microsome Stability (Multiple Species): Human - % Remaining after 30 min w/NADPH” value in [9] is 0.81%. In series [10], the “Liver Microsome Stability (Multiple Species): Monkey - % Remaining after 30 min w/NADPH” value worked out at 0.48%.
For the molecule `Cc1c(/C=C/c2csc(NC(=O)c3cccn3Cc3ccncc3)n2)ncn1C(C)C` [Compound B58, (E)-N-(4-(2-(1-isopropyl-5-methyl-1H-imidazol-4-yl)vinyl)thiazol-2-yl)-1-(pyridin-4-ylmethyl)-1H-pyrrole-2-carboxamide], the IC50 in series [1] was 24.4 nM; in [2], 2310 nM; in series [3], 12400 nM; in series [4], > 19700 nM. In addition, the “24 hr Dox Inducible TNFaFLGluc 293FRT/TO: TNF/PD1” value in series [2] turned out to be 952. Moreover, the “24 hr Dox Inducible IL2FLGluc 293FRT/TO: IL2/PD1” value in [4] is recorded as >810. Besides, the values for the EC50 in series [5] and in series [6] were 15400 nM and 18400 nM, respectively. In addition, the “Liver Microsome Stability (Multiple Species): Rat - % Remaining after 30 min w/NADPH” value in series [7] amounted to 1.67%. In addition, in series [8], the “Liver Microsome Stability (Multiple Species): Mouse - % Remaining after 30 min w/NADPH” value amounted to 2.14%. In series [9], the “Liver Microsome Stability (Multiple Species): Human - % Remaining after 30 min w/NADPH” value came to 0.28%. Besides, in [10], the “Liver Microsome Stability (Multiple Species): Monkey - % Remaining after 30 min w/NADPH” value is 5.89%.
Consider `NC(=O)CCn1cnc(/C=C/c2csc(NC(=O)c3cccn3Cc3ccnc(F)c3)n2)c1` [Compound B109, (E)-N-(4-(2-(1-(3-amino-3-oxopropyl)-1H-imidazol-4-yl)vinyl)thiazol-2-yl)-1-((2-fluoropyridin-4-yl)methyl)-1H-pyrrole-2-carboxamide], for which the IC50 in [1], in series [2], in [3] and in series [4] was > 25000 nM each time. Moreover, in [2], the “24 hr Dox Inducible TNFaFLGluc 293FRT/TO: TNF/PD1” value is “<=>1.00”. Besides, the “24 hr Dox Inducible IL2FLGluc 293FRT/TO: IL2/PD1” value in series [4] is reported as “<=>1.0”. In addition, the EC50 in series [5] and in series [6] was > 25000 nM in each case. The “Liver Microsome Stability (Multiple Species): Rat - % Remaining after 30 min w/NADPH” value in [7] was 60.4%. Moreover, the “Liver Microsome Stability (Multiple Species): Mouse - % Remaining after 30 min w/NADPH” value in series [8] was determined as 60.2%. In addition, in series [9], the “Liver Microsome Stability (Multiple Species): Human - % Remaining after 30 min w/NADPH” value amounted to 10.2%. For the same molecule, the “Liver Microsome Stability (Multiple Species): Monkey - % Remaining after 30 min w/NADPH” value in [10] came to 5.04%.
`CCOC(=O)Nc1ccc(N2CCC[C@@H]2c2csc(NC(=O)c3cccn3Cc3ccnc(F)c3)n2)cc1` [Compound A145, ethyl (R)-(4-(2-(2-(1-((2-fluoropyridin-4-yl)methyl)-1H-pyrrole-2-carboxamido)thiazol-4-yl)pyrrolidin-1-yl)phenyl)carbamate]: the IC50 in series [1] came to 0.31 nM; in series [2], 7.51 nM; in series [3] it was 0.83 nM; in series [4], 1.11 nM. Besides, the “24 hr Dox Inducible TNFaFLGluc 293FRT/TO: TNF/PD1” value in series [2] is given as 24. The “24 hr Dox Inducible IL2FLGluc 293FRT/TO: IL2/PD1” value in series [4] is 3.6. For the same molecule, the EC50 in series [5] is 13.5 nM; in [6], > 25000 nM. The “Liver Microsome Stability (Multiple Species): Rat - % Remaining after 30 min w/NADPH” value in series [7] is recorded as 46%. Further, the “Liver Microsome Stability (Multiple Species): Mouse - % Remaining after 30 min w/NADPH” value in series [8] stood at 25.1%. The “Liver Microsome Stability (Multiple Species): Human - % Remaining after 30 min w/NADPH” value in series [9] amounted to 41.5%. Besides, in series [10], the “Liver Microsome Stability (Multiple Species): Monkey - % Remaining after 30 min w/NADPH” value is on record as 18%.
Turning to `O=C(Nc1ccc(N2CCC[C@@H]2c2csc(NC(=O)c3cccn3Cc3ccnc(F)c3)n2)cc1)OC1COC1` [Compound A177, oxetan-3-yl (R)-(4-(2-(2-(1-((2-fluoropyridin-4-yl)methyl)-1H-pyrrole-2-carboxamido)thiazol-4-yl)pyrrolidin-1-yl)phenyl)carbamate], the IC50 in [1] is 0.93 nM; in [2], 25.8 nM; in series [3] it was 2.39 nM; in series [4], 2.79 nM. Besides, the “24 hr Dox Inducible TNFaFLGluc 293FRT/TO: TNF/PD1” value in series [2] was 27.6. Also, the “24 hr Dox Inducible IL2FLGluc 293FRT/TO: IL2/PD1” value in series [4] was determined as 3. Also, the results for the concentration for a half-maximal effect (EC50) in [5] and in series [6] were 16.2 nM and > 25000 nM, respectively. Further, in [7], the “Liver Microsome Stability (Multiple Species): Rat - % Remaining after 30 min w/NADPH” value stood at 57.1%. The “Liver Microsome Stability (Multiple Species): Mouse - % Remaining after 30 min w/NADPH” value in series [8] is given as 29.1%. Moreover, the “Liver Microsome Stability (Multiple Species): Human - % Remaining after 30 min w/NADPH” value in [9] is reported as 39.3%. Also, the “Liver Microsome Stability (Multiple Species): Monkey - % Remaining after 30 min w/NADPH” value in series [10] was found to be 9.52%.
`CC(C)c1cccc2nc(/C=C/c3csc(NC(=O)c4cccn4Cc4ccncc4)n3)cn12` [Compound B76, (E)-N-(4-(2-(5-isopropylimidazo[1,2-a]pyridin-2-yl)vinyl)thiazol-2-yl)-1-(pyridin-4-ylmethyl)-1H-pyrrole-2-carboxamide]: the IC50 was 419 nM in series [1], > 25000 nM in series [2], 1600 nM in series [3] and > 25000 nM in series [4]. In series [2], the “24 hr Dox Inducible TNFaFLGluc 293FRT/TO: TNF/PD1” value is >59.6. For the same molecule, the “24 hr Dox Inducible IL2FLGluc 293FRT/TO: IL2/PD1” value in series [4] is listed as >60. In addition, the EC50 in series [5] and in series [6] was > 25000 nM in each case. The “Liver Microsome Stability (Multiple Species): Rat - % Remaining after 30 min w/NADPH” value in [7] is 0.52%. Besides, in series [8], the “Liver Microsome Stability (Multiple Species): Mouse - % Remaining after 30 min w/NADPH” value was found to be 0.37%. In [9], the “Liver Microsome Stability (Multiple Species): Human - % Remaining after 30 min w/NADPH” value is reported as 0.76%. In series [10], the “Liver Microsome Stability (Multiple Species): Monkey - % Remaining after 30 min w/NADPH” value was 0.25%.
